Consider 16 compounds from patent publication US10717716B2, “1,3,4-oxadiazole derivative compounds as histone deacetylase 6 inhibitor, and the pharmaceutical composition comprising the same” (Chong Kun Dang Pharmaceutical Corp., priority 2015, dated 2020).

For one test, the target named is T1, human recombinant HDAC6 (Homo sapiens, UniProt Q9UBN7).
T1 construct: purchased Calbiochem 382180
T1 sequence (Q9UBN7 1-1215): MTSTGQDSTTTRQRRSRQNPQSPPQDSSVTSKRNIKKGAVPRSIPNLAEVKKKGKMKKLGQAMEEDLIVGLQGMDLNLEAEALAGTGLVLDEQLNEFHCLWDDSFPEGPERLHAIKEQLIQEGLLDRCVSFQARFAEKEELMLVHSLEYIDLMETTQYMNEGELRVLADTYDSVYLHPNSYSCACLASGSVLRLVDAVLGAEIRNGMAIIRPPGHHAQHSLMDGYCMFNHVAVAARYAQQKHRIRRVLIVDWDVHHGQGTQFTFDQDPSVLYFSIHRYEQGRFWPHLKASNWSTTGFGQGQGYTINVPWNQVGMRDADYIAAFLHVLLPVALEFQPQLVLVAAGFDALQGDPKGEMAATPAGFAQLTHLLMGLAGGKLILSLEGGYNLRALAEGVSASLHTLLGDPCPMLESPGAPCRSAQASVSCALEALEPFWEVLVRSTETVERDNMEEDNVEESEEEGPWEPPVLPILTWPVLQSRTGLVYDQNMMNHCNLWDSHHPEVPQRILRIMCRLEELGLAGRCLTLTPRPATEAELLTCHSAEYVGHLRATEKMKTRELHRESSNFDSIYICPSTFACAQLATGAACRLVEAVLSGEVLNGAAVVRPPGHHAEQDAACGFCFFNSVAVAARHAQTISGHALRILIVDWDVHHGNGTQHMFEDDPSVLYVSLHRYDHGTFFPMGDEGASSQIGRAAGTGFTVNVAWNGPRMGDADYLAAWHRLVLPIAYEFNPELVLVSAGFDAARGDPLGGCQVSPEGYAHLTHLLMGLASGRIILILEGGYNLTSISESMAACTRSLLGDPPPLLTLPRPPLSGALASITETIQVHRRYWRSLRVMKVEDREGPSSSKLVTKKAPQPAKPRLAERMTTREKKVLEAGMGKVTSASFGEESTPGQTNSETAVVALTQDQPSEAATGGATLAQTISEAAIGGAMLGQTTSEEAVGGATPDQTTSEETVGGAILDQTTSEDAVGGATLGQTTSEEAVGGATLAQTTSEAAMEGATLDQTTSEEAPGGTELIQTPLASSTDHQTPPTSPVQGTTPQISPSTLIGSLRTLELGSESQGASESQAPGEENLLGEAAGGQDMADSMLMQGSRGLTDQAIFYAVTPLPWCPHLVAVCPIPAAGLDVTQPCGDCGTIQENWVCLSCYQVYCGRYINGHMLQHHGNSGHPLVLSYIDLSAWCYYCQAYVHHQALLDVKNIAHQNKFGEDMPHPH
As to the kind of experiment: HDAC6 enzyme activity inhibition assay (HDAC Fluorimetric Drug Discovery Kit). It counts as biochemical. As to conditions: for HDAC6 selectivity (fold): HDAC6 over HDAC1; for IC50: human recombinant HDAC6, same protocol as HDAC1, read-out: HDAC6. The gist of the method:
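Human recombinant HDAC1 or HDAC6 (0.3 μg) reacted with 10 μM Fluor de Lys-SIRT1 substrate and 5-fold compound dilutions for 60 min at 30 °C. Developer II added for 30 min, fluorescence read at Ex 360/Em 460; IC50 calculated from the readings.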

A further test concerns the target T2, human recombinant HDAC1 (Homo sapiens, UniProt Q13547).
T2 construct: purchased Enzo Life Science BML-SE456
As to the kind of experiment: HDAC1 enzyme activity inhibition assay (HDAC Fluorimetric Drug Discovery Kit). It is filed as biochemical. As to conditions: human recombinant HDAC1, Fluor de Lys substrate 10 μM, 30° C. 60 minutes. The protocol: In order to examine the HDAC6 selectivity of the compounds of formula I of the present invention by HDAC1 and HDAC6 enzymatic activity inhibition assays, an experiment was performed using a conventional substance as a control.
HDAC enzyme activity was measured using a HDAC Fluorimetric Drug Discovery Kit (BML-AK511, 516, Enzo Life Science). For the HDAC1 enzyme activity test, human recombinant HDAC1 (BML-SE456) was used as an enzyme source, and Fluor de Lys®-“SIRT1 (BNL-KI177) was used as a substrate. A 5-fold dilution of the compound was seeded into a 96-well plate, and then 0.3 μg of the enzyme and 10 μM of the substrate were added to each well of the plate and allowed to react at 30° C. for 60 minutes. Then, Fluor de Lys®-Developer II (BML-KI176) was added thereto and allowed to react for 30 minutes, after which the fluorescence value (Ex 360, Em 460) was measured using a multi-plate reader (Flexstation 3, Molecular Device). The HDAC6 enzyme was tested using human recombinant HDAC6 (382180) (Calbiochem) according to the same protocol as the HDAC1 enzyme activity test method. Based on the resulting values, each IC5, value was calculated using GraphPad Prism4.0 program.

T2 sequence (Q13547 whole entry): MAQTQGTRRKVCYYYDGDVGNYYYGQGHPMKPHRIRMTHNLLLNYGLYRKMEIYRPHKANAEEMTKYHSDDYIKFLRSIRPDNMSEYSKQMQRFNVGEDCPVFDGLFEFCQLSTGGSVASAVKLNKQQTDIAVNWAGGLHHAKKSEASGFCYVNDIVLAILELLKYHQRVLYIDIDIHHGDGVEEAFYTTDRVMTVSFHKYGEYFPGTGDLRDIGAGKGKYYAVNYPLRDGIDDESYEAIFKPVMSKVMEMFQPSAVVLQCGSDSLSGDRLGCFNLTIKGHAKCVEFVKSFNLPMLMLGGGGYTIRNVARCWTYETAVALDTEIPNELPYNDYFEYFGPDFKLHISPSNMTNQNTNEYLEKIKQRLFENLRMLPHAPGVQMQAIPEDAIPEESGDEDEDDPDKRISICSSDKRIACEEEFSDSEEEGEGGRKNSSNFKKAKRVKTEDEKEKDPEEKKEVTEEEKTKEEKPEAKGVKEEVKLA

For the compound `CCN1CCN(C(=O)N(Cc2ccc(-c3nnc(C(F)(F)F)o3)cc2F)c2ccc(F)c(Br)c2)CC1` [Compound 21658, N-(3-bromo-4-fluorophenyl)-4-ethyl-N-(2-fluoro-4-(5-(trifluoromethyl)-1,3,4-oxadiazol-2-yl)benzyl)piperazine-1-carboxamide], at human recombinant HDAC6, the “HDAC6 selectivity (fold)” value was 59 fold and the IC50 was 0.144 µM. Further, the IC50 at human recombinant HDAC1 is 8.44 µM.
`CCN1CCN(C(=O)N(Cc2ccc(-c3nnc(C(F)(F)F)o3)cc2F)c2cccc(F)c2F)CC1` [Compound 21659, N-(2,3-difluorophenyl)-4-ethyl-N-(2-fluoro-4-(5-(trifluoromethyl)-1,3,4-oxadiazol-2-yl)benzyl)piperazine-1-carboxamide]: at human recombinant HDAC6, the “HDAC6 selectivity (fold)” value turned out to be 153 fold and the IC50 was 0.102 µM. Besides, the IC50 at human recombinant HDAC1 amounted to 15.7 µM.
With `CCN1CCN(C(=O)N(Cc2ccc(-c3nnc(C(F)(F)F)o3)cc2F)c2ccc(C)c(Cl)c2)CC1` [Compound 21660, N-(3-chloro-4-methylphenyl)-4-ethyl-N-(2-fluoro-4-(5-(trifluoromethyl)-1,3,4-oxadiazol-2-yl)benzyl)piperazine-1-carboxamide], on human recombinant HDAC6, the “HDAC6 selectivity (fold)” value is 80 fold and the IC50 turned out to be 0.309 µM. Further, the IC50 on human recombinant HDAC1 amounted to 24.8 µM.
On to `O=C(N1CC[C@@H](O)C1)N(Cc1ccc(-c2nnc(C(F)(F)F)o2)cc1F)c1ccc(F)c(Cl)c1` [Compound 21664, (R)—N-(3-chloro-4-fluorophenyl)-N-(2-fluoro-4-(5-(trifluoromethyl)-1,3,4-oxadiazol-2-yl)benzyl)-3-hydroxypyrrolidine-1-carboxamide], for which, on human recombinant HDAC6, the “HDAC6 selectivity (fold)” value worked out at 114 fold and the IC50 turned out to be 0.151 µM. The IC50 at human recombinant HDAC1 is 17.1 µM.
As to `O=C(N1CC[C@H](F)C1)N(Cc1ccc(-c2nnc(C(F)F)o2)cc1F)c1ccc(F)c(Cl)c1` [Compound 21665, (S)—N-(3-chloro-4-fluorophenyl)-N-(4-(5-(difluoromethyl)-1,3,4-oxadiazol-2-yl)-2-fluorobenzyl)-3-fluoropyrrolidine-1-carboxamide], at human recombinant HDAC6, the “HDAC6 selectivity (fold)” value was 917 fold and the IC50 stood at 0.021 µM. The IC50 at human recombinant HDAC1 came out at 19.1 µM.
In the case of `O=C(N1CC[C@H](F)C1)N(Cc1ccc(-c2nnc(C(F)(F)F)o2)cc1F)c1ccc(F)c(Cl)c1` [Compound 21666, (S)—N-(3-chloro-4-fluorophenyl)-3-fluoro-N-(2-fluoro-4-(5-(trifluoromethyl)-1,3,4-oxadiazol-2-yl)benzyl)pyrrolidine-1-carboxamide], at human recombinant HDAC6, the “HDAC6 selectivity (fold)” value was found to be 55 fold and the IC50 is 0.374 µM. Moreover, on human recombinant HDAC1, the IC50 amounted to 20.5 µM.
`O=C(N1CCC(F)(F)C1)N(Cc1ccc(-c2nnc(C(F)F)o2)cc1F)c1ccc(F)c(Cl)c1` [Compound 21667, N-(3-chloro-4-fluorophenyl)-N-(4-(5-(difluoromethyl)-1,3,4-oxadiazol-2-yl)-2-fluorobenzyl)-3,3-difluoropyrrolidine-1-carboxamide]: on human recombinant HDAC6, the “HDAC6 selectivity (fold)” value is reported as 485 fold and the IC50 worked out at 0.041 µM. For the same compound, the IC50 at human recombinant HDAC1 turned out to be 20.1 µM.
The matching figures for `O=C(N1CCC(F)(F)C1)N(Cc1ccc(-c2nnc(C(F)(F)F)o2)cc1F)c1ccc(F)c(Cl)c1` [Compound 21668, N-(3-chloro-4-fluorophenyl)-3,3-difluoro-N-(2-fluoro-4-(5-(trifluoromethyl)-1,3,4-oxadiazol-2-yl)benzyl)pyrrolidine-1-carboxamide]: 41 fold, 0.253 µM and 10.4 µM.
The matching figures for `O=C(N1CCN(CCO)CC1)N(Cc1ccc(-c2nnc(C(F)(F)F)o2)cc1F)c1ccc(F)c(Cl)c1` [Compound 21669, N-(3-chloro-4-fluorophenyl)-N-(2-fluoro-4-(5-(trifluoromethyl)-1,3,4-oxadiazol-2-yl)benzyl)-4-(2-hydroxyethyl)piperazine-1-carboxamide]: 46 fold, 0.164 µM and 7.47 µM.
The matching figures for `O=C(N1CCN(CCO)CC1)N(Cc1ccc(-c2nnc(C(F)F)o2)cc1F)c1ccc(F)c(Cl)c1` [Compound 21679, N-(3-chloro-4-fluorophenyl)-N-(4-(5-(difluoromethyl)-1,3,4-oxadiazol-2-yl)-2-fluorobenzyl)-4-(2-hydroxyethyl)piperazine-1-carboxamide]: 675 fold, 0.034 µM and 23.2 µM.
Take `CN1CCN(C(=O)N(Cc2ccc(-c3nnc(C(F)F)o3)cc2F)c2cccc3c2cnn3C)CC1` [Compound 21709, N-(4-(5-(difluoromethyl)-1,3,4-oxadiazol-2-yl)-2-fluorobenzyl)-4-methyl-N-(1-methyl-1H-indazol-4-yl)piperazine-1-carboxamide]: at human recombinant HDAC6, the “HDAC6 selectivity (fold)” value worked out at 2255 fold and the IC50 was 0.026 µM. Also, at human recombinant HDAC1, the IC50 stood at 58.5 µM.
The matching figures for `Cn1ncc2c(N(Cc3ccc(-c4nnc(C(F)F)o4)cc3F)C(=O)N3CCS(=O)(=O)CC3)cccc21` [Compound 21710, N-(4-(5-(difluoromethyl)-1,3,4-oxadiazol-2-yl)-2-fluorobenzyl)-N-(1-methyl-1H-indazol-4-yl)thiomorpholine-4-carboxamide 1,1-dioxide]: 2651 fold, 0.026 µM and 67.7 µM.
For the compound `Cn1ncc2ccc(N(Cc3ccc(-c4nnc(C(F)F)o4)cc3F)C(=O)N3CCOCC3)cc21` [Compound 21724, N-(4-(5-(Difluoromethyl)-1,3,4-oxadiazol-2-yl)-2-fluorobenzyl)-N-(1-methyl-1H-indazol-6-yl)morpholine-4-carboxamide], at human recombinant HDAC6, the “HDAC6 selectivity (fold)” value is 736 fold and the IC50 turned out to be 0.028 µM. In addition, at human recombinant HDAC1, the IC50 was 20.7 µM.
Taken in the same sequence, the figures for `CCN1CCN(C(=O)N(Cc2ccc(-c3nnc(C(F)F)o3)cc2F)c2ccc3cnn(C)c3c2)CC1` [Compound 21735, N-(4-(5-(difluoromethyl)-1,3,4-oxadiazol-2-yl)-2-fluorobenzyl)-4-ethyl-N-(1-methyl-1H-indazol-6-yl)piperazine-1-carboxamide] were 662 fold, 0.029 µM and 19.1 µM.
Taken in the same sequence, the figures for `CN(C)[C@@H]1CCN(C(=O)N(Cc2ccc(-c3nnc(C(F)F)o3)cc2F)c2ccc3cnn(C)c3c2)C1` [Compound 21736, (R)—N-(4-(5-(difluoromethyl)-1,3,4-oxadiazol-2-yl)-2-fluorobenzyl)-3-(dimethylamino)-N-(1-methyl-1H-indazol-6-yl)pyrrolidine-1-carboxamide] were 432 fold, 0.041 µM and 17.7 µM.
For the compound `O=C(N1CCS(=O)(=O)CC1)N(Cc1ccc(-c2nnc(C(F)F)o2)cc1F)c1ccccc1F` [Compound 21808, N-(4-(5-(difluoromethyl)-1,3,4-oxadiazol-2-yl)-2-fluorobenzyl)-N-(2-fluorophenyl)thiomorpholine-4-carboxamide 1,1-dioxide], on human recombinant HDAC6, the “HDAC6 selectivity (fold)” value came to 2023 fold and the IC50 worked out at 0.021 µM. Moreover, the IC50 on human recombinant HDAC1 was 42.6 µM.
